Measured values published in patent US8889591B2, “Herbicidal compositions comprising 4-amino-3-chloro-5-fluoro-6-(4-chloro-2-fluoro-3-methoxyphenyl)pyridine-2-carboxylic acid or a derivative thereof and bromobutide, daimuron, oxaziclomefone or pyributicarb” (Dow Agrosciences LLC, priority 2012, dated 2014).

Columns and labels:
FIMMI = experiment: In-water applied greenhouse weed control, transplanted paddy rice system; assay type: in vivo, Fimbristylis miliacea (L.) Vahl; settings: in-water application
Description: (§1) Weed seeds or nutlets of the desired test plant species were planted in puddled soil (mud) prepared by mixing a shredded, non-sterilized mineral soil (50.5 percent silt, 25.5 percent clay, and 24 percent sand, with a pH of about 7.6 and an organic matter content of about 2.9 percent) and water at a 1:1 volumetric ratio. The prepared mud was dispensed in 365 mL aliquots into 16-ounce (oz.) non-perforated plastic pots with a surface area of 86.59 square centimeters (cm^2) leaving a headspace of 3 centimeters (cm) in each pot. Mud was allowed to dry overnight prior to planting or transplanting. Rice seeds were planted in Sun Gro MetroMix® 306 planting mixture, which typically has a pH of 6.0 to 6.8 and an organic matter content of about 30 percent, in plastic plug trays. Seedlings at the second or third leaf stage of growth were transplanted into 840 mL of mud contained in 32-oz. non-perforated plastic pots with a surface area of 86.59 cm^2 4 days prior to herbicide application. The paddy was created by filling the headspace of the pots with 2.5 to 3 cm of water. When required to ensure good germination and healthy plants, a fungicide treatment and/or other chemical or physical treatment was applied. The plants were grown for 4-22 days in a greenhouse with an approximate 14 h photoperiod which was maintained at about 29° C. during the day and 26° C. during the night. Nutrients were added as Osmocote® (19:6:12, N:P:K+ minor nutrients) at 2 g per 16-oz. pot and 4 g per 32-oz. pot. Water was added on a regular basis to maintain the paddy flood, and supplemental lighting was provided with overhead metal halide 1000-Watt lamps as necessary. The plants were employed for testing when they reached the first through fourth true leaf stage.
(§2) Treatments consisted of the acid or esters of 4-amino-3-chloro-5-fluoro-6-(4-chloro-2-fluoro-3-methoxy-phenyl)pyridine-2-carboxylic acid (compound A) each formulated as an SC and various herbicidal components alone and in combination. Forms of compound A were applied on an acid equivalent basis.
(§3) Other herbicidal components were applied on an active ingredient basis and included daimuron formulated as an EC, bromobutide (technical grade material), and oxaziclomefone (technical grade material).
(§4) Treatment requirements for each compound or herbicidal component were calculated based upon the rates being tested, the concentration of active ingredient or acid equivalent in the formulation, an application volume of 2 mL per component per pot, and an application area of 86.59 cm^2 per pot.
(§5) For formulated compounds, a measured amount was placed in an individual 100 or 200 mL glass vial and was dissolved in a volume of 1.25% (v/v) Agri-Dex® crop oil concentrate to obtain application solutions.
(§6) For technical grade compounds, a weighed amount was placed in an individual 100 to 200 mL glass vial and was dissolved in a volume of acetone to obtain concentrated stock solutions. […] The concentrated stock solutions obtained were diluted with an equivalent volume of an aqueous mixture containing 2.5% (v/v) crop oil concentrate so that the final application solutions contained 1.25% (v/v) crop oil concentrate.
(§7) Applications were made by injecting, with a pipetter, appropriate amounts of the application solutions, individually and sequentially, into the aqueous layer of the paddy. Control plants were treated in the same manner with the solvent blank. Applications were made so that all treated plant material received the same concentrations of acetone and crop oil concentrate.
(§8) The treated plants and control plants were placed in a greenhouse as described above and water was added as needed to maintain a paddy flood. After approximately 3 weeks the condition of the test plants as compared with that of the untreated plants was determined visually and scored on a scale of 0 to 100 percent where 0 corresponds to no injury or growth inhibition and 100 corresponds to complete kill. […]

CYPRO = experiment: as above; assay type: in vivo, Cyperus rotundus L.; settings: in-water application
Description: as §1, §2, §3, §4, §5, §6, §7, §8

BRAPP = experiment: Postemergence foliar-applied greenhouse weed control, direct-seeded rice system; assay type: in vivo; settings: Compound A Acid 4.38 gae/ha alone
Description: (§9) Seeds or nutlets of the desired test plant species were planted in a soil matrix prepared by mixing a loam or sandy loam soil (e.g., 28.6 percent silt, 18.8 percent clay, and 52.6 percent sand, with a pH of about 5.8 and an organic matter content of about 1.8 percent) and calcareous grit in an 80 to 20 ratio. The soil matrix was contained in plastic pots with a volume of 1 quart and a surface area of 83.6 square centimeters (cm^2). When required to ensure good germination and healthy plants, a fungicide treatment and/or other chemical or physical treatment was applied. The plants were grown for 8-22 days in a greenhouse with an approximate 14 h photoperiod which was maintained at about 29° C. during the day and 26° C. during the night. Nutrients (Peters Excel® 15-5-15 5-Ca 2-Mg and iron chelate) were applied in the irrigation solution as needed and water was added on a regular basis. Supplemental lighting was provided with overhead metal halide 1000-Watt lamps as necessary. The plants were employed for testing when they reached the first through fourth true leaf stage.
as §2, with “(Compound A),” for “(compound A)”, “SC (suspension concentrate),” for “SC”
(§10) Other herbicidal components were applied on an active ingredient basis and included diamuron formulated as an EC (emulsifiable concentrate) and oxaziclomefone (technical grade material).
(§11) Treatment requirements were calculated based upon the rates being tested, the concentration of active ingredient or acid equivalent in the formulation, and a 12 mL application volume at a rate of 187 L/ha.
(§12) For treatments comprised of formulated compounds, measured amounts of compounds were placed individually in 25 mL glass vials and diluted in a volume of 1.25% (v/v) Agri-Dex® crop oil concentrated to obtain 12× stock solutions. […] Application solutions were prepared by adding an appropriate amount of each stock solution (e.g., 1 mL) and diluted to the appropriate final concentrations with the addition of 10 mL of an aqueous mixture of 1.25% (v/v) crop oil concentrate so that the final spray solutions contained 1.25+/−0.05% (v/v) crop oil concentrate.
(§13) For treatments comprised of technical compounds, weighed amounts can be placed individually in 25 mL glass vials and dissolved in a volume of 97:3 v/v acetone/DMSO to obtain 12× stock solutions. […] Application solutions can be prepared by adding an appropriate amount of each stock solution (e.g., 1 mL) and diluted to the appropriate final concentrations with the addition of 10 mL of an aqueous mixture of 1.5% (v/v) crop oil concentrate so that the final spray solutions contain 1.25% (v/v) crop oil concentrate. When technical materials are used, the concentrated stock solutions can be added to the spray solutions so that the final acetone and DMSO concentrations of the application solutions are 16.2% and 0.5%, respectively.
(§14) For treatments comprised of formulated and technical compounds, weighed amounts of the technical materials were placed individually in 25 mL glass vials and dissolved in a volume of 97:3 v/v acetone/DMSO to obtain 12× stock solutions, and measured amounts of the formulated compounds were placed individually in 25 mL glass vials and diluted in a volume of 1.5% (v/v) crop oil concentrate or water to obtain 12× stock solutions. […] Application solutions were prepared by adding an appropriate amount of each stock solution (e.g., 1 mL) and diluted to the appropriate final concentrations with the addition of an appropriate amount of an aqueous mixture of 1.5% (v/v) crop oil concentrate so that the final spray solutions contained 1.25% (v/v) crop oil concentrate. […]

ECHCG = experiment: as above; assay type: in vivo, Echinochloa crusgalli (L.) Beauv.
Description: as §9
as §2, with “(Compound A),” for “(compound A)”, “SC (suspension concentrate),” for “SC”
as §10, §11, §12, §13, §14

ECHCO = experiment: as above; assay type: in vivo, Echinochloa colona (L.) Link
Description: as §9
as §2, with “(Compound A),” for “(compound A)”, “SC (suspension concentrate),” for “SC”
as §10, §11, §12, §13, §14

LEFCH = experiment: as above; assay type: in vivo, Leptochloa chinensis (L.) Nees
Description: as §9
as §2, with “(Compound A),” for “(compound A)”, “SC (suspension concentrate),” for “SC”
as §10, §11, §12, §13, §14

IPOHE = experiment: as above; assay type: in vivo, Ipomoea hederacea Jacq.
Description: as §9
as §2, with “(Compound A),” for “(compound A)”, “SC (suspension concentrate),” for “SC”
as §10, §11, §12, §13, §14

ECHOR = experiment: In-water applied greenhouse weed control, transplanted paddy rice system; assay type: in vivo, Echinochloa oryzoides (Ard.) Fritsch; settings: in-water application
Description: as §1, §2, §3, §4, §5, §6, §7, §8

[1] = Compound A Acid 4.38 gae/ha alone
[2] = Compound A Acid 8.75 gae/ha alone
[3] = Compound A Acid 17.5 gae/ha alone
[4] = Compound A Acid 35 gae/ha alone

| Compound | Visual Weed Control (%) - 19 DAA FIMMI Obs (FIMMI; Bromobutide 225 gai/ha alone) [%] | Visual Weed Control (%) - 19 DAA FIMMI Obs (FIMMI; Bromobutide 450 gai/ha alone) [%] | Visual Weed Control (%) - 19 DAA CYPRO Obs (CYPRO; Bromobutide 225 gai/ha alone) [%] | Visual Weed Control (%) - 19 DAA CYPRO Obs (CYPRO; Bromobutide 450 gai/ha alone) [%] | Visual Weed Control (%) - 20 DAA BRAPP Obs (BRAPP) [%] | Visual Weed Control (%) - 20 DAA ECHCG Obs (ECHCG; [1]) [%] | Visual Weed Control (%) - 20 DAA ECHCG Obs (ECHCG; [2]) [%] | Visual Weed Control (%) - 20 DAA ECHCO Obs (ECHCO; [1]) [%] | Visual Weed Control (%) - 20 DAA ECHCO Obs (ECHCO; [2]) [%] | Visual Weed Control (%) - 20 DAA ECHCO Obs (ECHCO; [3]) [%] | Visual Weed Control (%) - 20 DAA LEFCH Obs (LEFCH; [1]) [%] | Visual Weed Control (%) - 20 DAA LEFCH Obs (LEFCH; [2]) [%] | Visual Weed Control (%) - 20 DAA LEFCH Obs (LEFCH; [3]) [%] | Visual Weed Control (%) - 20 DAA IPOHE Obs (IPOHE; [1]) [%] | Visual Weed Control (%) - 20 DAA IPOHE Obs (IPOHE; [2]) [%] | Visual Weed Control (%) - 20 DAA ECHOR Obs (ECHOR; [2]) [%] | Visual Weed Control (%) - 20 DAA ECHOR Obs (ECHOR; [3]) [%] | Visual Weed Control (%) - 20 DAA ECHOR Obs (ECHOR; [4]) [%] | Visual Weed Control (%) - 21 DAA CYPRO Obs (CYPRO; [3]) [%] | Visual Weed Control (%) - 21 DAA CYPRO Obs (CYPRO; [4]) [%] |
| --- | --- | --- | --- | --- | --- | --- | --- | --- | --- | --- | --- | --- | --- | --- | --- | --- | --- | --- | --- | --- |
| CC(C)(NC(=O)C(Br)C(C)(C)C)c1ccccc1 (centres unmarked) [Bromobutide, 2-bromo-3,3-dimethyl-N-(1-methyl-1-phenylethyl)butanamide] | 0 | 15 | 0 | 0 | – | – | – | – | – | – | – | – | – | – | – | – | – | – | – | – |
| COc1c(Cl)ccc(-c2nc(C(=O)O)c(Cl)c(N)c2F)c1F [Compound A Acid, 4-amino-3-chloro-6-(4-chloro-2-fluoro-3-methoxyphenyl)-5-fluoropyridine-2-carboxylic acid] | – | – | – | – | 10 | 25 | 80 | 50 | 75 | 90 | 0 | 20 | 50 | 10 | 35 | 20 | 30 | 40 | 40 | 70 |
